In US6660772B2, “Use of 2-amino-1-(4-hydroxy-2-methanesulfonamidophenyl)ethanol for treating urinary incontinence” (Boehringer Ingelheim Pharma KG, priority 2001, dated 2003):

Test system: dog
Assay: Activity (maximum contraction) in the dog compared with noradrenaline
Conditions: percentage of contraction compared with noradrenaline
Method: The efficacy and selectivity of the compound according to the invention is determined as follows, using the same findings as described in 1:
Maximum contraction in the dog and activity on human urethra are percentages of contraction compared with noradrenaline. Selectivity in the dog is the difference obtained from the percentage contraction of the dog's femoral artery at 10^−5 M and percentage contraction of the carotid artery in the dog at 10^−5 M.

| SMILES | Activity in the Dog (maximum contraction) [%] |
| --- | --- |
| CS(=O)(=O)Nc1cc(C(O)CN)ccc1O (centres unmarked) [Compound 1, 2-amino-1-(4-hydroxy-3-methanesulfonamidophenyl)ethanol] | 103 |
| CS(=O)(=O)Nc1ccc(F)c([C@@H](O)CN)c1 [Compound 2, (−)-R-2-Amino-1-(2-fluoro-5-methanesulfonamidophenyl)ethanol] | 79 |
